Test results: patent EP0565634B1, “ANGIOTENSIN II RECEPTOR BLOCKING COMPOSITIONS” (SMITHKLINE BEECHAM CORPORATION, priority 1990, dated 1992)
Where two headings read alike, the source gives them in different places.

Tests used:
[1] = molecular target: vascular angiotensin II receptors; experiment: Radioligand binding assay, displacement of 125I-angiotensin II; details: particular fraction from rat mesenteric arteries, 80 pM 125I-angiotensin II, 1 hour at 25°C
Description: (§1) Angiotensin II antagonist activity of the compounds of Formula (I) is assessed by in vitro and in vivo methods. In vitro antagonist activity is determined by the ability of the compounds to compete with ^125I-angiotensin II for binding to vascular angiotensin II receptors and by their ability to antagonize the contractile response to angiotensin II in the isolated rabbit aorta. In vivo activity is evaluated by the efficacy of the compounds to inhibit the pressor response to exogenous angiotensin II in conscious rats and to lower blood pressure in a rat model of renin dependent hypertension.
The radioligand binding assay is a modification of a method previously described in detail (Gunther et al., Circ. Res. 47:278, 1980). A particular fraction from rat mesenteric arteries is incubated in Tris buffer with 80 pM of ^125I-angiotensin II with or without angiotensin II antagonists for 1 hour at 25°C. The incubation is terminated by rapid filtration and receptor bound ^125I-angiotensin II trapped on the filter is quantitated with a gamma counter. The potency of angiotensin II antagonists is expressed as the IC50 which is the concentration of antagonist needed to displace 50% of the total specifically bound angiotensin II. The IC50 of (E)-3-[2-n-butyl-1-{(4-carboxyphenyl)methyl}-1H-imidazol-5-yl]-2-(2-thienyl)methyl-2-propenoic acid is about 1.0 nM.

mean arterial pressure = experiment: Antihypertensive activity in renal artery ligated, renin-dependent hypertensive conscious rats; type: in vivo; details: Rattus norvegicus, po, 192 h, orally, seven to eight days following ligation, read-out: IC30 (dose needed to reduce mean arterial pressure by 30 mmHg)
Description: as §1
The antihypertensive activity of the compounds is measured by their ability to reduce mean arterial pressure in conscious rats made renin-dependent hypertensive by ligation of the left renal artery (Cangiano et al;., J. Pharmacol. Exp. Ther. 208:310, 1979). Renal artery ligated rats are prepared with indwelling catheters as described above. Seven to eight days following renal artery ligation, the time at which plasma renin levels are highest, the conscious rats are placed in restrainers and mean arterial pressure is continuously recorded prior to and following the administration of the compounds intravenously or orally. The dose of compound needed to reduce mean arterial pressure by 30 mmHg (IC30) is used as an estimate of potency. […]

[2] = test system: pressor response to exogenous angiotensin II; experiment: Inhibition of pressor response to angiotensin II in conscious rats; type: in vivo; details: Rattus norvegicus, intravenous injections of 250 mg/kg angiotensin II, read-out: IC50 (dose needed to produce 50% inhibition of the control response to angiotensin II)
Description: as §1
Rats are prepared with indwelling femoral arterial and venous catheters and a stomach tube (Gellai et al., Kidney Int. 15:419, 1979). Two to three days following surgery the rats are placed in a restrainer and blood pressure is continuously monitored from the arterial catheter with a pressure transducer and recorded on a polygraph. The change in mean arterial pressure in response to intravenous injections of […] angiotensin II is compared at various time points prior to and following the administration of the compounds intravenously or orally at doses of 0.1 to 300 mg/kg. The dose of compound needed to produce 50% inhibition of the control response to angiotensin II (IC50) is used to estimate the potency of the compounds.

- IC50 [1]: ~1 nM
SMILES: CCCCc1ncc(/C=C(\Cc2cccs2)C(=O)O)n1Cc1ccc(C(=O)O)cc1 [(E)-3-[2-n-butyl-1-{(4-carboxyphenyl)methyl}-1H-imidazol-5-yl]-2-(2-thienyl)methyl-2-propenoic acid]
- ED (30 mmHg) (mean arterial pressure): ~10 mg/kg
- ED50 ([2]; i.v.): ~0.1 mg/kg
- ED50 ([2]; po, orally): ~5.5 mg/kg
